In patent US20240294541A1, “COMPOUNDS CONSTITUTING C20-MODIFIED SALINOMYCIN DERIVATIVES, A METHOD FOR OBTAINING THE SAME, A COMPOSITION CONTAINING THE SAME AND A USE OF SAID COMPOUNDS” (FILECLO SPOLKA Z OGRANICZONA ODPOWIEDZIALNOSCIA, priority 2021, published 2024):
Where two headings read alike, the source gives them in different places.

What was measured:
Assay type in all cases: cell-based
[1] = tested on: A2780Cis (cisplatin-resistant human ovarian cancer); assay: In vitro cytotoxicity, SRB assay, A2780Cis; settings: for IC50: Homo sapiens, A2780cis, read-out: IC50 (nM) A2780Cis
[2] = tested on: MV-4-11 (human biphenotypic leukaemia); assay: In vitro cytotoxicity, MTT assay, MV-4-11; settings: for IC50: Homo sapiens, MV4-11, read-out: IC50 (nM) MV4-11
[3] = tested on: BALB/3T3 (normal mouse fibroblasts); assay: In vitro cytotoxicity, SRB assay, normal BALB/3T3 fibroblasts
[4] = Table 5, BALB/3T3 normal mouse fibroblasts, read-out: IC50 (nM) BALB3T3 normal cells

CC[C@@H](C(=O)[C@@H](C)[C@@H](O)[C@H](C)[C@@H]1O[C@@H]([C@@H](CC)C(=O)O)CC[C@@H]1C)[C@H]1O[C@]2(C=C[C@@H](NC(=O)N3CCN(C)CC3)[C@]3(CC[C@@](C)([C@H]4CC[C@](O)(CC)[C@H](C)O4)O3)O2)[C@H](C)C[C@@H]1C [FLC-00515-1•Na]
SI A2780Cis [1]: 10.6
IC50 [1]: 357 nM
SI MV4-11 [2]: 9.5
IC50 [2]: 400 nM
IC50 [3, 4]: 3790 nM

CC[C@@H](C(=O)[C@@H](C)[C@@H](O)[C@H](C)[C@@H]1O[C@@H]([C@@H](CC)C(=O)O)CC[C@@H]1C)[C@H]1O[C@]2(C=C[C@@H](NC(=O)N3CCN(S(C)(=O)=O)C3=O)[C@]3(CC[C@@](C)([C@H]4CC[C@](O)(CC)[C@H](C)O4)O3)O2)[C@H](C)C[C@@H]1C [FLC-00519-1•Na]
SI A2780Cis [1]: 5.3
IC50 [1]: 1190 nM
SI MV4-11 [2]: 4.0
IC50 [2]: 1590 nM
IC50 [3, 4]: 6370 nM

CC[C@@H](C(=O)[C@@H](C)[C@@H](O)[C@H](C)[C@@H]1O[C@@H]([C@@H](CC)C(=O)O)CC[C@@H]1C)[C@H]1O[C@]2(C=C[C@@H](NC(=O)OCCCCl)[C@]3(CC[C@@](C)([C@H]4CC[C@](O)(CC)[C@H](C)O4)O3)O2)[C@H](C)C[C@@H]1C [FLC-00530-1•Na]
SI A2780Cis [1]: 24.0
IC50 [1]: 2.6 nM
SI MV4-11 [2]: 9.7
IC50 [2]: 6.42 nM
IC50 [3, 4]: 62.5 nM

CC[C@@H](C(=O)[C@@H](C)[C@@H](O)[C@H](C)[C@@H]1O[C@@H]([C@@H](CC)C(=O)O)CC[C@@H]1C)[C@H]1O[C@]2(C=C[C@@H](NC(=O)OC(C(F)(F)F)C(F)(F)F)[C@]3(CC[C@@](C)([C@H]4CC[C@](O)(CC)[C@H](C)O4)O3)O2)[C@H](C)C[C@@H]1C [FLC-00531-1•Na]
SI A2780Cis [1]: 13.2
IC50 [1]: 11 nM
SI MV4-11 [2]: 6.2
IC50 [2]: 23.3 nM
IC50 ([3]; Mus musculus, BALB/3T3, read-out: IC50 (nM) BALB3T3 normal cells): 145 nM

CC[C@@H](C(=O)[C@@H](C)[C@@H](O)[C@H](C)[C@@H]1O[C@@H]([C@@H](CC)C(=O)O)CC[C@@H]1C)[C@H]1O[C@]2(C=C[C@@H](NC(=O)CC(C)(C)C)[C@]3(CC[C@@](C)([C@H]4CC[C@](O)(CC)[C@H](C)O4)O3)O2)[C@H](C)C[C@@H]1C [FLC-00534-1•Na]
SI A2780Cis [1]: 50.7
IC50 [1]: 1.28 nM
SI MV4-11 [2]: 42.4
IC50 [2]: 1.53 nM
IC50 [3, 4]: 64.9 nM

CC[C@@H](C(=O)[C@@H](C)[C@@H](O)[C@H](C)[C@@H]1O[C@@H]([C@@H](CC)C(=O)O)CC[C@@H]1C)[C@H]1O[C@]2(C=C[C@@H](NC(=O)N(C)C)[C@]3(CC[C@@](C)([C@H]4CC[C@](O)(CC)[C@H](C)O4)O3)O2)[C@H](C)C[C@@H]1C [FLC-00538-1•Na]
SI A2780Cis [1]: 22.4
IC50 [1]: 42.2 nM
SI MV4-11 [2]: 9.2
IC50 [2]: 103 nM
IC50 [3, 4]: 943 nM

CC[C@@H](C(=O)[C@@H](C)[C@@H](O)[C@H](C)[C@@H]1O[C@@H]([C@@H](CC)C(=O)O)CC[C@@H]1C)[C@H]1O[C@]2(C=C[C@@H](NC(=O)NCCCOC)[C@]3(CC[C@@](C)([C@H]4CC[C@](O)(CC)[C@H](C)O4)O3)O2)[C@H](C)C[C@@H]1C [FLC-00539-1•Na]
SI A2780Cis [1]: 46.1
IC50 [1]: 7.06 nM
SI MV4-11 [2]: 11.9
IC50 [2]: 27.3 nM
IC50 [3, 4]: 326 nM

CC[C@@H](C(=O)[C@@H](C)[C@@H](O)[C@H](C)[C@@H]1O[C@@H]([C@@H](CC)C(=O)O)CC[C@@H]1C)[C@H]1O[C@]2(C=C[C@@H](NC(=O)N3CCOCC3)[C@]3(CC[C@@](C)([C@H]4CC[C@](O)(CC)[C@H](C)O4)O3)O2)[C@H](C)C[C@@H]1C [FLC-00540-1•Na]
SI A2780Cis [1]: 24.1
IC50 [1]: 37 nM
SI MV4-11 [2]: 16.5
IC50 [2]: 53.9 nM
IC50 [3, 4]: 891 nM

CC[C@@H](C(=O)[C@@H](C)[C@@H](O)[C@H](C)[C@@H]1O[C@@H]([C@@H](CC)C(=O)O)CC[C@@H]1C)[C@H]1O[C@]2(C=C[C@@H](NC(=O)N3CCC3)[C@]3(CC[C@@](C)([C@H]4CC[C@](O)(CC)[C@H](C)O4)O3)O2)[C@H](C)C[C@@H]1C [FLC-00543-1•Na]
SI A2780Cis [1]: 15.2
IC50 [1]: 67 nM
SI MV4-11 [2]: 5.9
IC50 [2]: 174 nM
IC50 [3, 4]: 1020 nM

CC[C@@H](C(=O)[C@@H](C)[C@@H](O)[C@H](C)[C@@H]1O[C@@H]([C@@H](CC)C(=O)O)CC[C@@H]1C)[C@H]1O[C@]2(C=C[C@@H](NC(=O)NCC3CCC(F)(F)CC3)[C@]3(CC[C@@](C)([C@H]4CC[C@](O)(CC)[C@H](C)O4)O3)O2)[C@H](C)C[C@@H]1C [FLC-00545-1•Na]
SI A2780Cis [1]: 186.6
IC50 [1]: 0.57 nM
SI MV4-11 [2]: 62.8
IC50 [2]: 1.68 nM
IC50 [3, 4]: 106 nM

CC[C@@H](C(=O)[C@@H](C)[C@@H](O)[C@H](C)[C@@H]1O[C@@H]([C@@H](CC)C(=O)O)CC[C@@H]1C)[C@H]1O[C@]2(C=C[C@@H](NC(=O)NCCCN3CCS(=O)(=O)CC3)[C@]3(CC[C@@](C)([C@H]4CC[C@](O)(CC)[C@H](C)O4)O3)O2)[C@H](C)C[C@@H]1C [FLC-00546-1•Na]
SI A2780Cis [1]: 19.5
IC50 [1]: 112 nM
SI MV4-11 [2]: 8.5
IC50 [2]: 258 nM
IC50 [3, 4]: 2180 nM

CC[C@@H](C(=O)[C@@H](C)[C@@H](O)[C@H](C)[C@@H]1O[C@@H]([C@@H](CC)C(=O)O)CC[C@@H]1C)[C@H]1O[C@]2(C=C[C@@H](NC(=O)OCCc3scnc3C)[C@]3(CC[C@@](C)([C@H]4CC[C@](O)(CC)[C@H](C)O4)O3)O2)[C@H](C)C[C@@H]1C [FLC-00547-1•Na]
SI A2780Cis [1]: ≈56.2
IC50 [1]: < 1.38 nM
SI MV4-11 [2]: 35.2
IC50 [2]: 2.21 nM
IC50 [3, 4]: 77.6 nM

CC[C@@H](C(=O)[C@@H](C)[C@@H](O)[C@H](C)[C@@H]1O[C@@H]([C@@H](CC)C(=O)O)CC[C@@H]1C)[C@H]1O[C@]2(C=C[C@@H](NC(=O)C(C)(C)C)[C@]3(CC[C@@](C)([C@H]4CC[C@](O)(CC)[C@H](C)O4)O3)O2)[C@H](C)C[C@@H]1C [FLC-00550-1•Na]
SI A2780Cis [1]: 42.1
IC50 [1]: 10.6 nM
SI MV4-11 [2]: 26.6
IC50 [2]: 16.9 nM
IC50 [3, 4]: 448 nM

CC[C@@H](C(=O)[C@@H](C)[C@@H](O)[C@H](C)[C@@H]1O[C@@H]([C@@H](CC)C(=O)O)CC[C@@H]1C)[C@H]1O[C@]2(C=C[C@@H](NC(=O)OC(C)(C)C#N)[C@]3(CC[C@@](C)([C@H]4CC[C@](O)(CC)[C@H](C)O4)O3)O2)[C@H](C)C[C@@H]1C [FLC-00551-1•Na]
SI A2780Cis [1]: 12.5
IC50 [1]: 63.6 nM
SI MV4-11 [2]: 9.8
IC50 [2]: 81 nM
IC50 [3, 4]: 792 nM

C#CC(C)(C)OC(=O)N[C@@H]1C=C[C@]2(O[C@H]([C@@H](CC)C(=O)[C@@H](C)[C@@H](O)[C@H](C)[C@@H]3O[C@@H]([C@@H](CC)C(=O)O)CC[C@@H]3C)[C@@H](C)C[C@H]2C)O[C@@]12CC[C@@](C)([C@H]1CC[C@](O)(CC)[C@H](C)O1)O2 [FLC-00552-1•Na]
SI A2780Cis [1]: 46.7
IC50 [1]: 4.02 nM
SI MV4-11 [2]: 32.1
IC50 [2]: 5.84 nM
IC50 [3, 4]: 187 nM

CC[C@@H](C(=O)[C@@H](C)[C@@H](O)[C@H](C)[C@@H]1O[C@@H]([C@@H](CC)C(=O)O)CC[C@@H]1C)[C@H]1O[C@]2(C=C[C@@H](NC(=O)OC3CCN(C)CC3)[C@]3(CC[C@@](C)([C@H]4CC[C@](O)(CC)[C@H](C)O4)O3)O2)[C@H](C)C[C@@H]1C [FLC-00559-1•Na]
SI A2780Cis [1]: 16.2
IC50 [1]: 330 nM
SI MV4-11 [2]: 17.8
IC50 [2]: 300 nM
IC50 [3, 4]: 5340 nM

CC[C@@H](C(=O)[C@@H](C)[C@@H](O)[C@H](C)[C@@H]1O[C@@H]([C@@H](CC)C(=O)O)CC[C@@H]1C)[C@H]1O[C@]2(C=C[C@@H](NC(=O)N3CCS(=O)(=O)CC3)[C@]3(CC[C@@](C)([C@H]4CC[C@](O)(CC)[C@H](C)O4)O3)O2)[C@H](C)C[C@@H]1C [FLC-00560-1•Na]
SI A2780Cis [1]: 18.8
IC50 [1]: 283 nM
SI MV4-11 [2]: 15.7
IC50 [2]: 339 nM
IC50 [3, 4]: 5330 nM

CC[C@@H](C(=O)[C@@H](C)[C@@H](O)[C@H](C)[C@@H]1O[C@@H]([C@@H](CC)C(=O)O)CC[C@@H]1C)[C@H]1O[C@]2(C=C[C@@H](NC(=O)NCc3cccnc3)[C@]3(CC[C@@](C)([C@H]4CC[C@](O)(CC)[C@H](C)O4)O3)O2)[C@H](C)C[C@@H]1C [FLC-00566-1•Na]
SI A2780Cis [1]: 47.6
IC50 [1]: 122 nM
SI MV4-11 [2]: 22.8
IC50 [2]: 255 nM
IC50 [3, 4]: 5820 nM
